Some test systems named below: HCT-116 colon; NCI-H460 lung; M14 melanoma; SW-620 colon; SNB-75 CNS; SK-OV-3 ovarian; HCC-2998 colon; MDA-MB-231 breast; HOP-62 NSCLC; NCI/ADR-RES ovarian.
Common to all, as to test: NCI tumour cell line growth inhibition, 48 h

Molecules are shown by their SMILES.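 Compound exposure: 48 hours, 5 concentrations, 96-well plates. GI50 is the concentration that inhibits growth by half. TGI: total growth inhibition.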 A value given as a limit tells only on which side of the number the result lay.

In the case of `Nc1ccn(C2OC(COP(=O)(O)O)C(O)C2O)c(=O)n1` (stereo not drawn), the TGI was greater than 100 µM in the experiment with HCT-116 colon; greater than 27.8 µM in the experiment with NCI-H460 lung; greater than 44.9 µM with M14 melanoma; greater than 100 µM in the experiment with SW-620 colon; greater than 100 µM with SNB-75 CNS; greater than 100 µM in the experiment on SK-OV-3 ovarian. In addition, the TGI with HCC-2998 colon, in the experiment with MDA-MB-231 breast, in the experiment with HOP-62 NSCLC and in the experiment on NCI/ADR-RES ovarian was greater than 100 µM throughout.

Turning to `CC1(C)CC2=NOS3=C2C(=NO3)C1c1ccccn1` (stereo not drawn), the TGI in the experiment with HCT-116 colon, with NCI-H460 lung, in the experiment with M14 melanoma, in the experiment with SW-620 colon, in the experiment on SNB-75 CNS and in the experiment with SK-OV-3 ovarian was greater than 100 µM in each case. The TGI with HCC-2998 colon, in the experiment with MDA-MB-231 breast, in the experiment on HOP-62 NSCLC and in the experiment on NCI/ADR-RES ovarian was greater than 100 µM each time.

As to `Nc1nc(F)nc2c1ncn2C1OC(COP(=O)(O)O)C(O)C1O` (stereo not drawn), the TGI in the experiment on HCT-116 colon turned out to be 325 µM; in the experiment with NCI-H460 lung, 616 µM; in the experiment on M14 melanoma, 66.7 µM; in the experiment with SW-620 colon, 675 µM; with SNB-75 CNS it was 713 µM; in the experiment on SK-OV-3 ovarian, 292 µM. Besides, the TGI in the experiment with HCC-2998 colon was determined as 1170 µM; in the experiment on MDA-MB-231 breast, 772 µM; with HOP-62 NSCLC it was 122 µM; in the experiment on NCI/ADR-RES ovarian, 106 µM.

Consider `CC(=O)O[C@H]1C(=O)[C@@]2(C)[C@H]([C@H](OC(=O)c3ccccc3)[C@]3(O)C[C@H](OC(=O)[C@H](OC(=O)CCC(=O)OC4CCC(S/N=C(N)/N=C(\N)N(C)C)CC4)[C@@H](NC(=O)c4ccccc4)c4ccccc4)C(C)=C1C3(C)C)[C@]1(OC(C)=O)CO[C@@H]1C[C@@H]2O` (stereo partly drawn), for which the GI50 was less than 0.005 µM with HCT-116 colon; 0.0069 µM in the experiment on NCI-H460 lung; 0.0119 µM in the experiment on SW-620 colon; less than 0.005 µM with SNB-75 CNS; 0.0144 µM with SK-OV-3 ovarian; 0.0147 µM in the experiment with HCC-2998 colon. The results for the GI50 in the experiment on MDA-MB-231 breast, in the experiment on HOP-62 NSCLC and in the experiment with NCI/ADR-RES ovarian were 0.0249 µM, 0.0133 µM and 1.82 µM, respectively. Further, the TGI with HCT-116 colon was greater than 50 µM; in the experiment on NCI-H460 lung it was greater than 27.7 µM; in the experiment with SW-620 colon, greater than 50 µM; with SNB-75 CNS it was 0.0174 µM; in the experiment on SK-OV-3 ovarian, greater than 50 µM; in the experiment on HCC-2998 colon, 0.727 µM. Besides, the TGI was greater than 31.4 µM with MDA-MB-231 breast, greater than 50 µM in the experiment on HOP-62 NSCLC and greater than 24.4 µM with NCI/ADR-RES ovarian.

Regarding `O=[N+]([O-])c1ccccc1/C=C/C=C1c2ccccc2-c2ccccc21`, the GI50 in the experiment on HCT-116 colon, in the experiment on NCI-H460 lung, with M14 melanoma, with SW-620 colon, in the experiment with SNB-75 CNS and with SK-OV-3 ovarian was greater than 100 µM throughout. The GI50 in the experiment with HCC-2998 colon, in the experiment on MDA-MB-231 breast, with HOP-62 NSCLC and in the experiment on NCI/ADR-RES ovarian was greater than 100 µM throughout. Moreover, the TGI in the experiment on HCT-116 colon, with NCI-H460 lung, in the experiment on M14 melanoma, in the experiment on SW-620 colon, in the experiment with SNB-75 CNS and in the experiment on SK-OV-3 ovarian was greater than 100 µM in each case. Further, the TGI in the experiment on HCC-2998 colon, with MDA-MB-231 breast, in the experiment on HOP-62 NSCLC and in the experiment on NCI/ADR-RES ovarian was greater than 100 µM throughout.

For `C[C@@H](Oc1cc(-c2cnn(C3CC4(CCNCC4)C3)c2)cnc1N)c1c(F)ccc(Cl)c1Cl`, the GI50 was 0.671 µM with HCT-116 colon; 0.855 µM with NCI-H460 lung; 1.15 µM in the experiment with M14 melanoma; 0.537 µM in the experiment with SW-620 colon; 1.32 µM with SNB-75 CNS; 2.43 µM in the experiment with SK-OV-3 ovarian. The GI50 was 1.42 µM in the experiment with HCC-2998 colon, 1.26 µM in the experiment on MDA-MB-231 breast, 1.25 µM in the experiment with HOP-62 NSCLC and 6.61 µM in the experiment on NCI/ADR-RES ovarian. The TGI came out at 2.65 µM in the experiment with HCT-116 colon; 2.84 µM with NCI-H460 lung; 2.61 µM with M14 melanoma; 2.33 µM in the experiment on SW-620 colon; 2.92 µM in the experiment on SNB-75 CNS; 6.75 µM in the experiment on SK-OV-3 ovarian. Also, the TGI in the experiment on HCC-2998 colon turned out to be 3.1 µM; with MDA-MB-231 breast, 3 µM; with HOP-62 NSCLC it was 5.9 µM; in the experiment with NCI/ADR-RES ovarian, 21.2 µM.

On to `O=C(CSc1nc2sc3c(c2c(=O)n1-c1ccccc1)CCCCC3)N/N=C/c1ccc(F)cc1`, for which the GI50 in the experiment with HCT-116 colon was 2.34 µM; in the experiment on NCI-H460 lung, 1.12 µM; in the experiment with M14 melanoma, 5.72 µM; with SW-620 colon, 3.14 µM; with SNB-75 CNS, 1.85 µM; in the experiment with SK-OV-3 ovarian, 3.47 µM. Moreover, the GI50 in the experiment on HCC-2998 colon was 49.5 µM; with MDA-MB-231 breast, 1.04 µM; in the experiment with HOP-62 NSCLC it was 2.38 µM; in the experiment on NCI/ADR-RES ovarian, 2.25 µM. Moreover, the TGI with HCT-116 colon is 12 µM; in the experiment with NCI-H460 lung it was 2.98 µM; in the experiment on M14 melanoma, greater than 100 µM; in the experiment with SW-620 colon, 33.6 µM; in the experiment with SNB-75 CNS, 4.93 µM; in the experiment on SK-OV-3 ovarian, 11.8 µM. The TGI in the experiment with HCC-2998 colon is greater than 100 µM; in the experiment on MDA-MB-231 breast, 3.27 µM; in the experiment with HOP-62 NSCLC it was 7.39 µM; in the experiment on NCI/ADR-RES ovarian, 6.72 µM.

Take `C[C@]12CC[C@H]3[C@@H](CC=C4C[C@@H](O)CC[C@@]43C)[C@@H]1C/C(=C\c1cccc(OCCCn3ccnc3)c1)[C@@H]2O`: the GI50 in the experiment on HCT-116 colon is 5.99 µM; in the experiment with NCI-H460 lung, 13.8 µM; in the experiment with M14 melanoma it was 13.4 µM; in the experiment with SW-620 colon it was 10.6 µM; with SNB-75 CNS, 14.1 µM; with SK-OV-3 ovarian, 16.2 µM. The GI50 was 17.8 µM with HCC-2998 colon, 13.2 µM with MDA-MB-231 breast, 15.1 µM in the experiment with HOP-62 NSCLC and 20.4 µM in the experiment on NCI/ADR-RES ovarian. For the same molecule, the TGI was found to be 21.1 µM in the experiment with HCT-116 colon; 31.8 µM in the experiment on NCI-H460 lung; 35.7 µM in the experiment on M14 melanoma; 26.8 µM in the experiment on SW-620 colon; 28.8 µM with SNB-75 CNS; 32.7 µM with SK-OV-3 ovarian. The TGI in the experiment on HCC-2998 colon is 34.1 µM; in the experiment on MDA-MB-231 breast, 32 µM; with HOP-62 NSCLC, 32.7 µM; in the experiment on NCI/ADR-RES ovarian, 99.7 µM.

Take `OCC1OC(O)C(N=Cc2ccc3c(c2)OCO3)C(O)C1O` (stereo not drawn): the TGI in the experiment on HCT-116 colon, in the experiment on NCI-H460 lung, in the experiment with M14 melanoma, in the experiment on SW-620 colon, with SNB-75 CNS and with SK-OV-3 ovarian was greater than 100 µM throughout. Also, the TGI in the experiment on HCC-2998 colon, with MDA-MB-231 breast, in the experiment on HOP-62 NSCLC and in the experiment with NCI/ADR-RES ovarian was greater than 100 µM throughout.

For the molecule `CNC(=O)c1ccc(Nc2nc(OC3CCCC3)c3c(-c4ccc5nc(C)oc5c4)c[nH]c3n2)c(OC)c1`, the GI50 in the experiment with HCT-116 colon was 0.409 µM; with NCI-H460 lung it was 0.119 µM; with M14 melanoma it was 16.9 µM; with SW-620 colon it was 0.121 µM; in the experiment with SNB-75 CNS, 0.474 µM; in the experiment with HCC-2998 colon, greater than 100 µM. Also, the GI50 with MDA-MB-231 breast is 14 µM; with HOP-62 NSCLC, greater than 100 µM; in the experiment with NCI/ADR-RES ovarian, 1.71 µM. Besides, the TGI in the experiment with HCT-116 colon was greater than 60.5 µM; in the experiment on NCI-H460 lung it was greater than 100 µM; in the experiment with M14 melanoma it was greater than 100 µM; in the experiment on SW-620 colon, greater than 100 µM; in the experiment on SNB-75 CNS, greater than 100 µM; in the experiment with SK-OV-3 ovarian, greater than 100 µM. Besides, the TGI in the experiment with HCC-2998 colon, in the experiment with MDA-MB-231 breast, with HOP-62 NSCLC and in the experiment with NCI/ADR-RES ovarian was greater than 100 µM each time.

Take `O=C(Nc1cccc(-c2nc3ccccc3[nH]2)c1)c1cccc(NC(=O)c2ccco2)c1`: the GI50 in the experiment with HCT-116 colon was 1.74 µM; with NCI-H460 lung it was 1.67 µM; with SW-620 colon, 3.19 µM; with SNB-75 CNS, 1.55 µM; in the experiment with SK-OV-3 ovarian, 2.35 µM; in the experiment on HCC-2998 colon it was 10 µM. Moreover, the GI50 in the experiment with MDA-MB-231 breast was 1.98 µM; with HOP-62 NSCLC, 2.06 µM; in the experiment with NCI/ADR-RES ovarian it was 7.92 µM. Also, the TGI with HCT-116 colon came to 3.11 µM; in the experiment with NCI-H460 lung, 3.03 µM; with SW-620 colon, 10.8 µM; in the experiment on SNB-75 CNS it was 2.91 µM; with SK-OV-3 ovarian, 4.42 µM; with HCC-2998 colon, 21.5 µM. The results for the TGI in the experiment with MDA-MB-231 breast, in the experiment with HOP-62 NSCLC and with NCI/ADR-RES ovarian were 4.85 µM, 4.3 µM and 66 µM, respectively.

In the case of `O=C(CCc1ccc(O)c(O)c1)c1ccc(O)c(O)c1O`, the TGI is greater than 100 µM in the experiment on HCT-116 colon; 36.2 µM in the experiment on NCI-H460 lung; 41.7 µM with M14 melanoma; greater than 100 µM with SW-620 colon; greater than 100 µM in the experiment with SNB-75 CNS; greater than 100 µM in the experiment on SK-OV-3 ovarian. Moreover, the figures for the TGI with HCC-2998 colon, with MDA-MB-231 breast and in the experiment with NCI/ADR-RES ovarian were greater than 100 µM, 55.5 µM and greater than 100 µM, respectively.

Take `CCOC(=O)CCc1c(C)c2ccc(O)cc2oc1=O`: the TGI in the experiment with HCT-116 colon, in the experiment on NCI-H460 lung, in the experiment on M14 melanoma, in the experiment on SW-620 colon, in the experiment on SNB-75 CNS and in the experiment on HCC-2998 colon was greater than 100 µM each time. For the same molecule, the TGI with MDA-MB-231 breast, in the experiment on HOP-62 NSCLC and in the experiment with NCI/ADR-RES ovarian was greater than 100 µM each time.

These data come from PubChem BioAssay (NCI).
